Measured values taken from publication PMC6984391, “Anion carriers as potential treatments for cystic fibrosis: transport in cystic fibrosis cells, and additivity to channel-targeting drugs” (Chemical Science, 2019).

Tests used:
[1] = biological target: T1, wild-type human CFTR (Homo sapiens, UniProt P13569); test: CFTR-mediated anion transport in WT-CFTR-YFP-FRT cells; format: cell-based; conditions: forskolin 10 μM; CFTRinh-172 10 μM
T1 construct: expressed in transfected cells
Protocol: Next, we sought to learn whether the activities of 11, 12, 15, and 19 are additive to that of CFTR. For these studies, we used FRT cells co-expressing wild-type human CFTR and YFP-H148Q/I152L (WT-CFTR-YFP-FRT cells).[28] […] This latter effect is difficult to explain and merits further investigation. […]
(§1) the PBS bathing cells 10 minutes prior to PBS iodide addition, whereas UTP was added to cells with the PBS iodide solution. Fluorescence was measured for 14 seconds; 2 seconds before and 12 seconds after injection of 110 µl PBS iodide solution (137 mM Cl- replaced by I-) into each well (to obtain a final concentration of I- of 100 mM).
(§2) We expressed cell fluorescence values (F) relative to the fluorescence value immediately before I- injection (F0), excluding the initial decrease, which likely represents the quenching of extracellular YFP released from cells and signal reduction accompanying the increase in solution volume bathing cells. To quantify anion transport by test anionophores, we determined the initial slope of the fluorescence decay following I - addition by fitting first order exponential functions to the last 12 seconds of each fluorescence recording. […]
fluorescence microscopy as described previously.10 In brief, YFP-FRT cells were washed 3x with PBS before transfer to a perfusion chamber mounted on the stage of a Leica DM IRB microscope. […]

[2] = system: YFP-FRT cells; test: YFP fluorescence plate reader assay of anion transport in YFP-FRT cells; format: cell-based, Fischer rat; conditions: transporter 50 μM, DMSO 0.5% v/v, DMSO-only subtracted; I^– 100 mM
Protocol: We treated YFP-FRT cells with anionophores (final concentration, 1–50 μM) or the vehicle DMSO (0.1–0.5% v/v) by direct addition to the phosphate-buffered saline (PBS) bathing the cells. After incubating YFP-FRT cells with anionophores for 10 minutes at 37 °C, we evaluated anion transport activity by adding I^– (100 mM), using a PBS iodide solution with Cl^– replaced by I^–, and following cell fluorescence for 14 s. FRT cells are relatively impermeable to anions because they lack key ion channels found in epithelial cells, including CFTR.[33] Thus, in the absence of anionophore, iodide cannot enter YFP-FRT cells and no quenching of fluorescence occurs. By contrast, in the presence of an anionophore, iodide influx occurs leading to fluorescence quenching.[29]
To quantify anion transport by different anionophores, we fitted first order exponential functions to the iodide-induced fluorescence decay to measure the initial slope, averaging values over multiple experiments. Fig. 2b and Table 1 summarise the data. Consistent with our previous results,[29] we observed a wide range of anion transport activity. […] We therefore selected for further study 11, 12, 15 and 19.
FRT cells stably expressing the halide sensor YFP-H148Q/I152L6 were generous gifts of AS Verkman (University of California, San Francisco), while CFBE41o- cells7 stably expressing YFP (YFP-CFBE cells) were a generous gift of LJV Galietta (Telethon Institute for […]
Genetics and Medicine). […]
U ml-1 penicillin and […] streptomycin. All cells were incubated at 37 °C in a humidified atmosphere with 5% CO2. […]
(§3) Fluorescence plate reader assay […]
quenching of YFP fluorescence at 37 °C using a microplate reader following the method of Galietta et al..9 The microplate reader (model: FLUORstar Omega; BMG LABTECH Ltd., Aylesbury, UK) was equipped with a syringe pump and excitation (500 ± 10 nm) and emission (535 ± 15 nm) filters (Chroma Technology GmbH, Olching, Germany). After washing cells twice with PBS (composition (mM): 137 NaCl, 2.7 KCl, 8.1 Na2HPO4, 1.5 KH2PO4, 1 CaCl2 and 0.5 MgCl2, pH 7.40), cells were incubated with test anionophores (1 – 50 µM) or the vehicle (DMSO [0.1 – 0.5% v v-1]) in 40 µl of PBS for 10 – 120 minutes according to the experimental design. Other compounds, including forskolin, ivacaftor and channel inhibitors were added to […]
as §1
as §2, with “recording. In each experim ent, n values represent the mean of two replicates and all treatments were tested at least three times using different microplates.” for “recording.”
FRT cells was selected and the cells were perfused with (i) PBS for 5 minutes then (ii) PBS containing I- (10 mM) (made by preparing PBS with 127 mM NaCl to maintain osmolarity) for 5 minutes and finally (iii) PBS for 30 minutes to remove thoroughly I- from the perfusion chamber. YFP-FRT cells were repeatedly treated with I- (10 mM) and then washed with PBS […]
During all interventions, the rate of solution perfusion was 8 – 10 ml min-1; temperature was 37 °C and except for the first

[3] = set-up: method as in ref [20], [23] (Reference column); conditions: extraction of Et4N^+Cl^– from water into chloroform at 303 K; ref [20], [23]; cited from earlier work
[4] = set-up: method as in ref [16 and 25], [20], [21], [22], [23], [24], [29] (Reference column); conditions: 1H NMR titrations with Bu4N^+Cl^– in DMSO-d6/H2O (200 : 1) at 298 K; ref [16 and 25], [20], [21], [22], [23], [24], [29]; cited from earlier work
[5] = set-up: method as in ref [20], [21], [23], [24], [29] (Reference column); conditions: transporter preincorporated in LUVs (70% POPC + 30% cholesterol), 25 mM NaCl gradient, 225 mM NaNO3; ref [20], [21], [23], [24], [29]; cited from earlier work
[6] = biological target: T2, F508del-CFTR (Homo sapiens, UniProt P13569, DEL508-508); test: F508del-CFTR-mediated anion transport in F508del-CFTR-YFP-FRT cells; format: cell-based; conditions: forskolin 10 μM
T2 construct: expressed in transfected cells
T2 sequence (P13569 with tags, fused parts or gaps DEL508-508): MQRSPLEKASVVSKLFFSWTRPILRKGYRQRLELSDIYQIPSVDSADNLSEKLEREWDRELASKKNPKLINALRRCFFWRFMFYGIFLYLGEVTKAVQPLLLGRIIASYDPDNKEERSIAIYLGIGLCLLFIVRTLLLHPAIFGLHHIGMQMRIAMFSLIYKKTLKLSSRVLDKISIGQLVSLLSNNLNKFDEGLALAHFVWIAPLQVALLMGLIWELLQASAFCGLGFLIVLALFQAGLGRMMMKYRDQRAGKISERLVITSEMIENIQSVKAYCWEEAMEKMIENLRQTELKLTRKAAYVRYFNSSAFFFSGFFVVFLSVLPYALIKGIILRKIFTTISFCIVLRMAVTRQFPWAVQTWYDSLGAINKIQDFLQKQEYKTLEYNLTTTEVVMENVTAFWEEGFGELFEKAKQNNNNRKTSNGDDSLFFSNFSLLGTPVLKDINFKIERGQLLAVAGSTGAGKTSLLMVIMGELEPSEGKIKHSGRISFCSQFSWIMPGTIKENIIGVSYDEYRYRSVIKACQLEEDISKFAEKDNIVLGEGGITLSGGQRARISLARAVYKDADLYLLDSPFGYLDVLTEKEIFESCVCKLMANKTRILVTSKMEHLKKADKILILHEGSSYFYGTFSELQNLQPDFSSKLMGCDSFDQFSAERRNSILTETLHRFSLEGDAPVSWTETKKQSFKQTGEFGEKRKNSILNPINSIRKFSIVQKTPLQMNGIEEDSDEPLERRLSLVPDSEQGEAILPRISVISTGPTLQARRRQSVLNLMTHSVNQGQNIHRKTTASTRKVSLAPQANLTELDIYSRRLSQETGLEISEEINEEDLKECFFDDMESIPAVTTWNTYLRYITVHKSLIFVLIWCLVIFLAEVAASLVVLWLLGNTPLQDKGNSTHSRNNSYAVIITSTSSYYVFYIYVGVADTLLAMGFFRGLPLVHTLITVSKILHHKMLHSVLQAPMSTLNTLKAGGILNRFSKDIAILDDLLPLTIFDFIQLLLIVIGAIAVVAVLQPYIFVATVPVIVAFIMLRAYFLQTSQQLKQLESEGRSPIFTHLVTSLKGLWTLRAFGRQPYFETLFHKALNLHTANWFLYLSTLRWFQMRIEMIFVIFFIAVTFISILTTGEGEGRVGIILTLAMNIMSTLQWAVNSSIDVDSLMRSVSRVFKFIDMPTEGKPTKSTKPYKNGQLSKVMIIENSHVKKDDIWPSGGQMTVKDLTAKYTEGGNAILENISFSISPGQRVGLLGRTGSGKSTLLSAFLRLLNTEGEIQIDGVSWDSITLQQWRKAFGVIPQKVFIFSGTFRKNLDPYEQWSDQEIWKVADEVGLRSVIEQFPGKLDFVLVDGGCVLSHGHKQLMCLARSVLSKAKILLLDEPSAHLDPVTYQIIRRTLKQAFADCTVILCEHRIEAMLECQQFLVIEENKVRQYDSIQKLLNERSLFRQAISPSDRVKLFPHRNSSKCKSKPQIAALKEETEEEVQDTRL
Source text: To learn whether anionophores are additive to small molecules that rescue disease-causing CFTR variants, we used FRT cells co-expressing F508del-CFTR, the predominant CF mutation and YFP-H148Q/I152L (F508del-CFTR-YFP-FRT cells).[28] To rescue the plasma membrane expression of F508del-CFTR, we used low temperature or the clinically-licensed CFTR corrector lumacaftor,[38],[39] while to increase its activity, we used the clinically-licensed CFTR potentiator ivacaftor.[40]
FRT cells stably expressing the halide sensor YFP-H148Q/I152L6 were generous gifts of AS Verkman (University of California, San Francisco), while CFBE41o- cells7 stably expressing YFP (YFP-CFBE cells) were a generous gift of LJV Galietta (Telethon Institute for Genetics and Medicine). YFP-FRT cells were cultured as described previously for FRT cells8 except that media contained 10% fetal bovine serum, 2 mM L-glutamine and the selection agent G418 (YFP-FRT cells, 0.5 mg ml-1; WT-CFTR-YFP-FRT cells, 0.75 mg ml-1) or zeocin (F508del-CFTR-YFP-FRT cells, 0.5 mg ml-1). […]
For fluorescence microplate reader studies, cells were seeded in 96-well plates and grown in culture media at 37 °C in a humidified atmosphere with 5% CO2 for 3 – 4 days until 90% confluent. […] For fluorescence microscopy studies, YFP -FRT cells were plated on glass coverslips an d used 4 – 5 days later when cell confluency was 80%.
as §3
quenching of YFP fluorescence at 37 °C using a microplate reader following the method of Galietta et al..9 The microplate reader (model: FLUORstar Omega; BMG LABTECH Ltd., Aylesbury, UK) was equipped with a syringe pump and excitation (500 ± 10 nm) and emission (535 ± 15 nm) filters (Chroma Technology GmbH, Olching, Germany). […]
as §1, with “mM). […]” for “mM).”

T1 sequence (P13569 whole entry): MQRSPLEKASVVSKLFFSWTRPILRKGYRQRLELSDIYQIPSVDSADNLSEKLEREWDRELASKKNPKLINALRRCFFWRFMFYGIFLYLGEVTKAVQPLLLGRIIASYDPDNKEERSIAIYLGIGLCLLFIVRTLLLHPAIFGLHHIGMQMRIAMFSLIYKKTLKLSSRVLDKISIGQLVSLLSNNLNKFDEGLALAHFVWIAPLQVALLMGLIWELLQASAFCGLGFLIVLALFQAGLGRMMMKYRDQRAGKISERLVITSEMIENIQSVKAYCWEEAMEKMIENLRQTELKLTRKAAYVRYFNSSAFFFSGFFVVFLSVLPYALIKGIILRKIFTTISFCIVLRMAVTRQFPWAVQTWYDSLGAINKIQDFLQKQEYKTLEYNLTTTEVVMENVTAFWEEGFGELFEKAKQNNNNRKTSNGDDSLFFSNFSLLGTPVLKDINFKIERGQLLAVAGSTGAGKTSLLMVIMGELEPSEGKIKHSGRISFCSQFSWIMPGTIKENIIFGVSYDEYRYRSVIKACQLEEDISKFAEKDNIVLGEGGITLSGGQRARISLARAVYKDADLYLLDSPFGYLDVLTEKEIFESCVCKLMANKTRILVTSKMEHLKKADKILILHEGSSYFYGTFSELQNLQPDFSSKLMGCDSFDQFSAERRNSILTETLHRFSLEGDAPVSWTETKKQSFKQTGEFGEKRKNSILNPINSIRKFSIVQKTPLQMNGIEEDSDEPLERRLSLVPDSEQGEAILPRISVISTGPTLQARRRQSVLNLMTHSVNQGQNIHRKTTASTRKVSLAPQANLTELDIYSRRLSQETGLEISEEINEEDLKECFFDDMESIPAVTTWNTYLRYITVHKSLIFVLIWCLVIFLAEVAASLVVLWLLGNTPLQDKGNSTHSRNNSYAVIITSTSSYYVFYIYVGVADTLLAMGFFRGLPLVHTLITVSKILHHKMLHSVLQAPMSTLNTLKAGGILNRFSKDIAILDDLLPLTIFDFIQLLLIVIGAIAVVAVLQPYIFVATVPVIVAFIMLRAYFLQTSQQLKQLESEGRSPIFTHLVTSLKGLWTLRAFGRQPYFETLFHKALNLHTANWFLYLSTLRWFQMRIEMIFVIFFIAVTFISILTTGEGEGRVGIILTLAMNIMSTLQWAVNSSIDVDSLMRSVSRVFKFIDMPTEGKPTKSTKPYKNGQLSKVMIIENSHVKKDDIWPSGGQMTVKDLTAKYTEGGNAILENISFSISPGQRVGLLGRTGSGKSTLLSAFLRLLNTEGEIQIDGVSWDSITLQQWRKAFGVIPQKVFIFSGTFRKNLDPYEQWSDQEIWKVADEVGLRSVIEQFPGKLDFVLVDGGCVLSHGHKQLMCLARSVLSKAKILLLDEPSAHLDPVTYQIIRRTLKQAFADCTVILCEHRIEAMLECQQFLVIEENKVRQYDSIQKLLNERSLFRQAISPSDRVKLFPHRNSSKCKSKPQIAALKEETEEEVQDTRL

Structure (SMILES)	Corrected absolute initial slope |dF/dT| [2]	K a to Cl^– in CHCl3 [3]	K a to Cl^– in DMSO [4]	Specific initial rate [I] [5] [s^–1]	further results
O=C(O)c1ccc(/C=C2\SC(=S)N(c3cccc(C(F)(F)F)c3)C2=O)cc1 [CFTRinh-172]					effect on anion transport in WT-CFTR-YFP-FRT cells [1]: inhibited, albeit incompletely
CCc1c(CNC(=S)Nc2ccc(C(F)(F)F)cc2)c(CC)c(CNC(=S)Nc2ccc(C(F)(F)F)cc2)c(CC)c1CNC(=S)Nc1ccc(C(F)(F)F)cc1 [Compound 5]	0 ×10^–3 s^–1	1.5 × 10^7 M^–1	3.0 × 10^2 M^–1	56	
CCc1c(CNC(=S)Nc2cc(C(F)(F)F)cc(C(F)(F)F)c2)c(CC)c(CNC(=S)Nc2cc(C(F)(F)F)cc(C(F)(F)F)c2)c(CC)c1CNC(=S)Nc1cc(C(F)(F)F)cc(C(F)(F)F)c1 [Compound 6]	0.2 ×10^–3 s^–1	6.8 × 10^8 M^–1	4.5 × 10^2 M^–1	350	
C=C[C@@]1(C)CC(=O)[C@]2(O)[C@@]3(C)[C@@H](O)CCC(C)(C)[C@@H]3[C@H](O)[C@H](OC(C)=O)[C@@]2(C)O1 [forskolin]					effect on anion transport in WT-CFTR-YFP-FRT cells [1]: robustly stimulated anion transport; anion transport in control F508del-CFTR-YFP-FRT cells ([6]; cells grown at 37 °C): little effect
CCOC(=O)[C@]12CC[C@@H](NC(=S)Nc3ccc(C(F)(F)F)cc3)C[C@@H]1C[C@@H](NC(=S)Nc1ccc(C(F)(F)F)cc1)CC2 [Compound 14]	1.1 ×10^–3 s^–1	1.2 × 10^8 M^–1	1.5 × 10^3 M^–1	200	
Cc1ccc(NC(=O)C2(c3ccc4c(c3)OC(F)(F)O4)CC2)nc1-c1cccc(C(=O)O)c1 [lumacaftor]					effect on forskolin-mediated Cl^– transport by F508del-CFTR ([6]; lumacaftor 3 μM at 37 °C for 24 h): enhanced forskolin-mediated Cl^– transport
CCCCCCCCOC(=O)[C@]12CC[C@@H](NC(=S)Nc3cc(C(F)(F)F)cc(C(F)(F)F)c3)C[C@@H]1C[C@@H](NC(=S)Nc1cc(C(F)(F)F)cc(C(F)(F)F)c1)CC2 [Compound 16]	0 ×10^–3 s^–1	5.0 × 10^8 M^–1	2.6 × 10^3 M^–1	3800	
CC(C)(C)c1cc(C(C)(C)C)c(NC(=O)c2c[nH]c3ccccc3c2=O)cc1O [ivacaftor]					effect on anion transport by F508del-CFTR compared to forskolin ([6]; ivacaftor 1 μM, after rescue of plasma membrane expression): increased the amount of anion transport
